tested on: production of CD69 by B lymphocytes in human whole blood activated by crosslinking surface IgM; assay: CD69 human whole blood assay (Example 903), FACS; assay type: cell-based; conditions: B lymphocytes activated with goat F(ab')2 anti-human IgM, read-out: CD69 Hu Blood FACS IC50
Description: There is good evidence that B-cells play a key role in the pathogenesis of autoimmune and/or inflammatory disease. Protein-based therapeutics that deplete B cells such as Rituxan are effective against autoantibody-driven inflammatory diseases such as rheumatoid arthritis (Rastetter et al. (2004) Annu Rev Med 55:477). CD69 is the early activation marker in leukocytes including T cells, thymocytes, B cells, NK cells, neutrophils, and eosinophils. The CD69 human whole blood assay (Example 903) determines the ability of compounds to inhibit the production of CD69 by B lymphocytes in human whole blood activated by crosslinking surface IgM with goat F(ab′)2 anti-human IgM.

IC50 | Structure (SMILES)
62.9 nM | CC(Nc1ncnc2[nH]cnc12)c1nc2ccc(F)cc2n1-c1cccnc1 (stereo not shown) [Example 176, [1-(6-Fluoro-1-pyridin-3-yl-1H-benzoimidazol-2-yl)-ethyl]-(9H-purin-6-yl)-amine]
134 nM | CC(Nc1ncnc2[nH]cnc12)c1nc2ccc(F)cc2n1-c1ccc(F)cc1 (stereo not shown) [Example 186, {1-[6-Fluoro-1-(4-fluoro-phenyl)-1H-benzoimidazol-2-yl]-ethyl}-(9H-purin-6-yl)-amine]
39.5 nM | CC(Nc1ncnc2[nH]cnc12)c1nc2ccc(F)c(C#N)c2n1-c1ccccc1 (stereo not shown) [Example 189, 5-Fluoro-3-phenyl-2-[1-(9H-purin-6-ylamino)-ethyl]-3H-benzoimidazole-4-carbonitrile]
78.9 nM | CC(Nc1ncnc2[nH]cnc12)c1nc2ccc(F)cc2n1-c1ccc(C#N)cc1 (stereo not shown) [Example 248, 4-{6-Fluoro-2-[1-(9H-purin-6-ylamino)-ethyl]-benzoimidazol-1-yl}-benzonitrile]

same assay, conditions: Homo sapiens, Lymphocyte, B lymphocytes activated with goat F(ab')2 anti-human IgM, read-out: CD69 Hu Blood FACS IC50

IC50 | Structure (SMILES)
43.3 nM | C[C@H](Nc1ncnc2[nH]cnc12)c1nc2ccc(F)cc2n1-c1cnn(C)c1 [Example 419, N-[(1S)-1-[6-fluoro-1-(1-methylpyrazol-4-yl)benzimidazol-2-yl]ethyl]-9H-purin-6-amine]
38.8 nM | COC[C@H](Nc1ncnc(N)c1C#N)c1nc2ccc(F)cc2n1-c1ccccn1 [Example 271, 4-Amino-6-[(R)-1-(6-fluoro-1-pyridin-2-yl-1H-benzoimidazol-2-yl)-2-methoxy-ethylamino]-pyrimidine-5-carbonitrile]
106 nM | COCC(Nc1ncnc2nc[nH]c12)c1nc2ccc(F)cc2n1-c1ccccc1 (stereo not shown) [Example 171, [1-(6-Fluoro-1-phenyl-1H-benzoimidazol-2-yl)-2-methoxy-ethyl]-(7H-purin-6-yl)-amine]
35.5 nM | C[C@H](Nc1ncnc(N)c1C#N)c1nc2cccc(C3CC3)c2n1-c1cccnc1 [Example 299, 4-Amino-6-[(S)-1-(7-cyclopropyl-1-pyridin-3-yl-1H-benzoimidazol-2-yl)-ethylamino]-pyrimidine-5-carbonitrile]
25.4 nM | CC(Nc1ncnc2[nH]cnc12)c1nc2ccc(F)cc2n1-c1cncc(F)c1 (stereo not shown) [Example 263, {1-[6-Fluoro-1-(5-fluoro-pyridin-3-yl)-1H-benzoimidazol-2-yl]-ethyl}-(9H-purin-6-yl)-amine]
606 nM | Cc1nccc(N[C@@H](C)c2nc3ccc(F)cc3n2-c2ccccc2)c1C#N [Example 340, 4-[(S)-1-(6-Fluoro-1-phenyl-1H-benzoimidazol-2-yl)-ethylamino]-2-methyl-nicotinonitrile]
163 nM | CC(C)n1c([C@H](C)Nc2ncnc(N)c2C#N)nc2ccc(F)c(-c3ccccn3)c21 [Example 408, 4-amino-6-[[(1S)-1-[6-fluoro-1-isopropyl-7-(2-pyridyl)benzimidazol-2-yl]ethyl]amino]pyrimidine-5-carbonitrile]
48.3 nM | Cc1c(F)ccc2nc([C@H](C)Nc3ncnc(N)c3C#N)n(-c3ccccn3)c12 [Example 289, 4-Amino-6-[(S)-1-(6-fluoro-7-methyl-1-pyridin-2-yl-1H-benzoimidazol-2-yl)-ethylamino]-pyrimidine-5-carbonitrile]
247 nM | COCC(Nc1ncnc2[nH]cnc12)c1nc2ccc(F)c(F)c2n1-c1ccccc1 (stereo not shown) [Example 190, [1-(6,7-Difluoro-1-phenyl-1H-benzoimidazol-2-yl)-2-methoxy-ethyl]-(9H-purin-6-yl)-amine]
14.1 nM | CC(Nc1ncnc2[nH]cnc12)c1nc2ccc(F)c(C(=O)N3CCN(C)CC3)c2n1-c1ccccc1 (stereo not shown) [Example 202, {5-Fluoro-3-phenyl-2-[1-(9H-purin-6-ylamino)-ethyl]-3H-benzoimidazol-4-yl}-(4-methyl-piperazin-1-yl)-methanone]
78.3 nM | CC(Nc1ncnc2[nH]cnc12)c1nc2ccc(F)cc2n1-c1ccc(C#N)cc1 (stereo not shown) [Example 227, 4-{6-Fluoro-2-[1-(9H-purin-6-ylamino)-ethyl]-benzoimidazol-1-yl}-benzonitrile]
149 nM | COC[C@H](Nc1ncnc2[nH]cnc12)c1nc2ccc(F)c(C)c2n1-c1ccccc1 [Example 188, [(R)-1-(6-Fluoro-7-methyl-1-phenyl-1H-benzoimidazol-2-yl)-2-methoxy-ethyl]-(9H-purin-6-yl)-amine]
31.6 nM | COC(=O)c1c(F)ccc2nc(C(C)Nc3ncnc4[nH]cnc34)n(-c3ccccc3)c12 (stereo not shown) [Example 197, 5-Fluoro-3-phenyl-2-[1-(9H-purin-6-ylamino)-ethyl]-3H-benzoimidazole-4-carboxylic acid methyl ester]
10.9 nM | CC(Nc1ncnc2[nH]cnc12)c1nc2ccc(F)c(C3CC3)c2n1-c1ccccc1 (stereo not shown) [Example 198, [1-(7-Cyclopropyl-6-fluoro-1-phenyl-1H-benzoimidazol-2-yl)-ethyl]-(9H-purin-6-yl)-amine]
34.1 nM | C[C@H](Nc1ncnc(N)c1C#N)c1nc2ccc(F)c(Br)c2n1-c1cccnc1 [Example 301, 4-Amino-6-[(S)-1-(7-bromo-6-fluoro-1-pyridin-3-yl-1H-benzoimidazol-2-yl)-ethylamino]-pyrimidine-5-carbonitrile]
58.2 nM | CC(C)N1CC(n2c([C@H](C)Nc3ncnc4[nH]cnc34)nc3ccc(F)cc32)C1 [Example 380, N-[(1S)-1-[6-fluoro-1-(1-isopropylazetidin-3-yl)benzimidazol-2-yl]ethyl]-9H-purin-6-amine]
405 nM | CC[C@H](Nc1ncnc2[nH]cnc12)c1nc2ccc(F)cc2n1-c1ccccn1 [Example 247, [(S)-1-(6-Fluoro-1-pyridin-2-yl-1H-benzoimidazol-2-yl)-propyl]-(9H-purin-6-yl)-amine]
514 nM | N#Cc1c(N)ncnc1NCc1nc2ccc(F)cc2n1-c1ccccc1 [Example 371, 4-amino-6-((6-fluoro-1-phenyl-1H-benzo[d]imidazol-2-yl)methylamino)pyrimidine-5-carbonitrile]
797 nM | C[C@H](Nc1ncnc(N)c1C#N)c1nc2ccc(F)c(-c3ccccn3)c2n1C1CC1 [Example 442, 4-Amino-6-[(S)-1-(1-cyclopropyl-6-fluoro-7-pyridin-2-yl-1H-benzoimidazol-2-yl)ethylamino]-pyrimidine-5-carbonitrile]
23.2 nM | C[C@H](Nc1ncnc(N)c1C#N)c1nc2ccc(F)c(C(=O)N3CCOCC3)c2n1C1CC1 [Example 401, 4-amino-6-[[(1S)-1-[1-cyclopropyl-6-fluoro-7-(morpholine-4-carbonyl)benzimidazol-2-yl]ethyl]amino]pyrimidine-5-carbonitrile]
52.1 nM | C[C@H](Nc1ncnc2[nH]cnc12)c1nc2ccc(F)cc2n1-c1cccc(F)c1 [Example 185, {(S)-1-[6-Fluoro-1-(3-fluoro-phenyl)-1H-benzoimidazol-2-yl]-ethyl}-(9H-purin-6-yl)-amine]
50.8 nM | CC(Nc1ncnc2[nH]cnc12)c1nc2ccc(F)cc2n1-c1ccccc1 (stereo not shown) [Example 194, [1-(6-Fluoro-1-phenyl-1H-benzoimidazol-2-yl)-ethyl]-(9H-purin-6-yl)-amine]
163 nM | C[C@H](Nc1ncnc2[nH]cnc12)c1nc2ccc(F)cc2n1-c1ccn(C)n1 [Example 403, N-[(1S)-1-[6-fluoro-1-(1-methylpyrazol-3-yl)benzimidazol-2-yl]ethyl]-9H-purin-6-amine]
145 nM | C[C@H](Nc1ncnn2ccnc12)c1nc2ccc(F)cc2n1-c1ccccn1 [Example 322, [(S)-1-(6-Fluoro-1-pyridin-2-yl-1H-benzoimidazol-2-yl)-ethyl]-imidazo[2,1-f][1,2,4]triazin-4-yl-amine]
798 nM | COc1ccc(-n2c(C(C)Nc3ncnc4[nH]cnc34)nc3ccc(F)cc32)cn1 (stereo not shown) [Example 207, {1-[6-Fluoro-1-(6-methoxy-pyridin-3-yl)-1H-benzoimidazol-2-yl]-ethyl}-(9H-purin-6-yl)-amine]
68.3 nM | C[C@H](Nc1ncnc2[nH]cnc12)c1nc2ccc(F)cc2n1[C@@H]1CCCN(CCO)C1 [Example 256, 2-((R)-3-{6-Fluoro-2-[(S)-1-(9H-purin-6-ylamino)-ethyl]-benzoimidazol-1-yl}-piperidin-1-yl)-ethanol]
4.1 nM | C[C@H](Nc1ncnc2[nH]cnc12)c1nc2ccc(F)c(C3CC3)c2n1-c1cccnc1 [Example 294, [(S)-1-(7-Cyclopropyl-6-fluoro-1-pyridin-3-yl-1H-benzoimidazol-2-yl)-ethyl]-(9H-purin-6-yl)-amine]
